PubChem BioAssay (NCI)
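How tested: cells in 96-well plates exposed to compound for 48 hours at five concentrations. Abbreviation: GI50, concentration required for 50% inhibition of growth. The concentration for full growth arrest is given as TGI.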

Tests used:
Assay in all cases: inhibition of tumour cell growth, NCI panel, 48 h
UACC-257 melanoma = tested on: UACC-257 melanoma
SF-295 CNS = tested on: SF-295 CNS
COLO 205 colon = tested on: COLO 205 colon
NCI-H460 lung = tested on: NCI-H460 lung
NCI-H522 lung = tested on: NCI-H522 lung
SF-539 CNS = tested on: SF-539 CNS
RXF 393 renal = tested on: RXF 393 renal
HL-60(TB) leukemia = tested on: HL-60(TB) leukemia
MCF7 breast = tested on: MCF7 breast
SF-268 CNS = tested on: SF-268 CNS
OVCAR-3 ovarian = tested on: OVCAR-3 ovarian
HCC-2998 colon = tested on: HCC-2998 colon
UACC-62 melanoma = tested on: UACC-62 melanoma
IGROV1 ovarian = tested on: IGROV1 ovarian
HT29 colon = tested on: HT29 colon
UO-31 renal = tested on: UO-31 renal
DU-145 prostate = tested on: DU-145 prostate
SK-MEL-28 melanoma = tested on: SK-MEL-28 melanoma
SNB-75 CNS = tested on: SNB-75 CNS
MDA-MB-231 breast = tested on: MDA-MB-231 breast
LOX IMVI melanoma = tested on: LOX IMVI melanoma
MALME-3M melanoma = tested on: MALME-3M melanoma
SK-MEL-2 melanoma = tested on: SK-MEL-2 melanoma
SN12C renal = tested on: SN12C renal
SK-MEL-5 melanoma = tested on: SK-MEL-5 melanoma
OVCAR-5 ovarian = tested on: OVCAR-5 ovarian
MOLT-4 leukemia = tested on: MOLT-4 leukemia
SR leukemia = tested on: SR leukemia
CAKI-1 renal = tested on: CAKI-1 renal
HCT-116 colon = tested on: HCT-116 colon
BT-549 breast = tested on: BT-549 breast
KM12 colon = tested on: KM12 colon
PC-3 prostate = tested on: PC-3 prostate
HCT-15 colon = tested on: HCT-15 colon
TK-10 renal = tested on: TK-10 renal
SNB-19 CNS = tested on: SNB-19 CNS
HOP-92 NSCLC = tested on: HOP-92 NSCLC
OVCAR-8 ovarian = tested on: OVCAR-8 ovarian
T-47D breast = tested on: T-47D breast
NCI-H226 lung = tested on: NCI-H226 lung
NCI-H23 lung = tested on: NCI-H23 lung
MDA-MB-435 = tested on: MDA-MB-435
RPMI-8226 leukemia = tested on: RPMI-8226 leukemia
CCRF-CEM leukemia = tested on: CCRF-CEM leukemia
SW-620 colon = tested on: SW-620 colon
NCI/ADR-RES ovarian = tested on: NCI/ADR-RES ovarian
HOP-62 NSCLC = tested on: HOP-62 NSCLC
U251 CNS = tested on: U251 CNS
SK-OV-3 ovarian = tested on: SK-OV-3 ovarian
A549 NSCLC = tested on: A549 NSCLC
786-0 renal = tested on: 786-0 renal
K-562 leukemia = tested on: K-562 leukemia
OVCAR-4 ovarian = tested on: OVCAR-4 ovarian
ACHN renal = tested on: ACHN renal
HS 578T breast = tested on: HS 578T breast

O=C(NC1CCN(Cc2ccccc2)CC1)c1cc(C(=O)NC2CCN(Cc3ccccc3)CC2)cc(C(=O)NC2CCN(Cc3ccccc3)CC2)c1
GI50 (UACC-257 melanoma): 8.08 µM
TGI (UACC-257 melanoma): 16.5 µM
GI50 (SF-295 CNS): 6.76 µM
TGI (SF-295 CNS): 15.6 µM
GI50 (COLO 205 colon): 3.62 µM
TGI (COLO 205 colon): 10.6 µM
GI50 (NCI-H460 lung): 8.07 µM
TGI (NCI-H460 lung): 16.9 µM
GI50 (NCI-H522 lung): 2030 nM
TGI (NCI-H522 lung): 10.1 µM
GI50 (SF-539 CNS): 865 nM
TGI (SF-539 CNS): 1620 nM
GI50 (RXF 393 renal): 2160 nM
TGI (RXF 393 renal): 10.2 µM
GI50 (HL-60(TB) leukemia): 15.1 µM
TGI (HL-60(TB) leukemia): > 50 µM
GI50 (MCF7 breast): 946 nM
TGI (MCF7 breast): 1850 nM
GI50 (SF-268 CNS): 8.25 µM
TGI (SF-268 CNS): 18.8 µM
GI50 (OVCAR-3 ovarian): 10.7 µM
TGI (OVCAR-3 ovarian): 44.6 µM
GI50 (HCC-2998 colon): 7.37 µM
TGI (HCC-2998 colon): 16.6 µM
GI50 (UACC-62 melanoma): 7.71 µM
TGI (UACC-62 melanoma): 15.2 µM
GI50 (IGROV1 ovarian): 25.2 µM
TGI (IGROV1 ovarian): > 50 µM
GI50 (HT29 colon): 1300 nM
TGI (HT29 colon): 4.17 µM
GI50 (UO-31 renal): > 50 µM
TGI (UO-31 renal): > 50 µM
GI50 (DU-145 prostate): 18.2 µM
TGI (DU-145 prostate): > 50 µM
GI50 (SK-MEL-28 melanoma): 2810 nM
TGI (SK-MEL-28 melanoma): 9.5 µM
GI50 (SNB-75 CNS): 1480 nM
TGI (SNB-75 CNS): 7.42 µM
GI50 (MDA-MB-231 breast): 2570 nM
TGI (MDA-MB-231 breast): 11.6 µM
GI50 (LOX IMVI melanoma): 1740 nM
TGI (LOX IMVI melanoma): 6.94 µM
GI50 (MALME-3M melanoma): 1120 nM
TGI (MALME-3M melanoma): 2520 nM
GI50 (SK-MEL-2 melanoma): 9.02 µM
TGI (SK-MEL-2 melanoma): 16.9 µM
GI50 (SN12C renal): 15.6 µM
TGI (SN12C renal): > 50 µM
GI50 (SK-MEL-5 melanoma): 7.9 µM
TGI (SK-MEL-5 melanoma): 16.9 µM
GI50 (OVCAR-5 ovarian): 6.83 µM
TGI (OVCAR-5 ovarian): 13.7 µM
GI50 (MOLT-4 leukemia): 1220 nM
TGI (MOLT-4 leukemia): 3.16 µM
GI50 (SR leukemia): 8.74 µM
TGI (SR leukemia): 26.2 µM
GI50 (CAKI-1 renal): > 50 µM
TGI (CAKI-1 renal): > 50 µM
GI50 (HCT-116 colon): 3.51 µM
TGI (HCT-116 colon): 14 µM
GI50 (BT-549 breast): 2010 nM
TGI (BT-549 breast): 11.4 µM
GI50 (KM12 colon): 3.37 µM
TGI (KM12 colon): 12.1 µM
GI50 (PC-3 prostate): 7.73 µM
TGI (PC-3 prostate): 19.5 µM
GI50 (HCT-15 colon): > 50 µM
TGI (HCT-15 colon): > 50 µM
GI50 (TK-10 renal): 18.3 µM
TGI (TK-10 renal): > 50 µM
GI50 (SNB-19 CNS): 8.61 µM
TGI (SNB-19 CNS): 17.6 µM
GI50 (HOP-92 NSCLC): 5.55 µM
TGI (HOP-92 NSCLC): 12.3 µM
GI50 (OVCAR-8 ovarian): 12.7 µM
TGI (OVCAR-8 ovarian): 43.4 µM
GI50 (T-47D breast): 4.56 µM
TGI (T-47D breast): 14.3 µM
GI50 (NCI-H226 lung): 14.7 µM
TGI (NCI-H226 lung): > 50 µM
GI50 (NCI-H23 lung): 7.78 µM
TGI (NCI-H23 lung): 15.7 µM
GI50 (MDA-MB-435): 923 nM
TGI (MDA-MB-435): 1850 nM
GI50 (RPMI-8226 leukemia): 5.52 µM
TGI (RPMI-8226 leukemia): 20.8 µM
GI50 (CCRF-CEM leukemia): 1750 nM
TGI (CCRF-CEM leukemia): 5.17 µM
GI50 (SW-620 colon): 3.86 µM
TGI (SW-620 colon): 13 µM
GI50 (NCI/ADR-RES ovarian): > 50 µM
TGI (NCI/ADR-RES ovarian): > 50 µM
GI50 (HOP-62 NSCLC): 9.33 µM
TGI (HOP-62 NSCLC): 19.7 µM
GI50 (U251 CNS): 1520 nM
TGI (U251 CNS): 5.66 µM
GI50 (SK-OV-3 ovarian): 8.27 µM
TGI (SK-OV-3 ovarian): 16.1 µM
GI50 (A549 NSCLC): 6.68 µM
TGI (A549 NSCLC): 15.4 µM
GI50 (786-0 renal): 14.8 µM
TGI (786-0 renal): > 50 µM
GI50 (K-562 leukemia): 2000 nM
TGI (K-562 leukemia): > 50 µM
GI50 (OVCAR-4 ovarian): 2430 nM
TGI (OVCAR-4 ovarian): 10.2 µM
GI50 (ACHN renal): > 50 µM
TGI (ACHN renal): > 50 µM
GI50 (HS 578T breast): 7.26 µM
TGI (HS 578T breast): 16.9 µM
